In article PMC12097015, “Development of MDM2‐Targeting PROTAC for Advancing Bone Regeneration” (Advanced Science, 2025):

Legend:
hBMSCs [1] = test: Calcium deposit staining (X-Rhod-1) in hBMSCs; type: cell-based, human; settings: X‐Rhod‐1, p < 0.05
Protocol: hBMSCs were differentiated in the presence of the 10 mM β‐glycerophosphate (Sigma‐Aldrich, G9422) and 50 µM ascorbic acid (Sigma‐Aldrich, A4403) in culture medium for 10 d. Subsequently, the cells were fixed with 4% PFA for 30 min, followed by two washes with Mg^2+‐and Ca^2+‐free dPBS (Welgene, LB‐204). To stain for calcium, X‐Rhod‐1 (Invitrogen, X14210) dye was diluted in Mg^2+‐and Ca^2+‐free dPBS at a concentration of 1 µM and incubated at room temperature in the dark for 1 h. The cells were then washed five times with Mg^2+‐and Ca^2+‐free dPBS at 10 min intervals. The samples were observed under a Cytation5 microscope (Agilent Technologies) at a wavelength of 595 nm.

p53 = p53 level by western blot in hBMSCs; type: cell-based, human; settings: 0.1 µM to 10 µM
Protocol: Human Bone Marrow‐derived Mesenchymal Stem Cells (hBMSCs) were provided by Professor Lee's laboratory, and cells from passages four to nine were used for all experiments. hBMSCs were cultured in alpha‐minimum essential medium (Welgene, LM008‐01) supplemented with 10% Fetal Bovine Serum (FBS) (Gibco, US origin, 16000–044) and 1% penicillin/streptomycin (Gibco, 15140‐122).
(§1) After discarding the medium and washing the cells twice with cold dPBS, the cells were collected using a scraper and lysed using RIPA buffer (GenDEPOT, R4200‐010) containing protease and phosphatase inhibitors (GenDEPOT, P3200‐001). The collected samples were centrifuged at 13 200 rpm for 10 min at 4 °C, and the supernatant containing total protein was collected. SDS‐PAGE gels (10–12%) were prepared, and protein samples were mixed with 5X loading buffer containing reducing agent (Biosesang, S2002) and heated at 98 °C for 5 min. Equal amounts of protein samples were loaded onto a gel, separated by electrophoresis, and transferred onto nitrocellulose membranes using a Dry Transfer Stacks Kit (Invitrogen, IB23001). The membrane was blocked with 5% nonfat milk in 1X TBST for 1 h at room temperature to prevent nonspecific binding. The membranes were incubated with primary antibodies specific to the target proteins overnight at 4 °C with gentle shaking. […]

hBMSCs [2] = test: Bulk RNA-seq of cultured hBMSCs; type: cell-based, human; settings: CL144 versus Nutlin‐3
Excerpt: ‐Sample Preparation: In accordance with the manufacturer's instructions, total RNA was extracted using Trizol from hBMSCs treated with Nutlin‐3 or CL144 as well as from control cells. Utilizing an Agilent Bioanalyzer RNA ScreenTape kit (Agilent, 5067–5576), the integrity of the RNA (RIN) was verified. All samples with RIN value > 8.0 were used for sequencing.
‐Library Construction: RNA‐seq libraries were constructed according to the manufacturer's instructions for the SRSLY Library Prep kit, which were provided by Claretbio (CBS‐K155B‐24). […] This work fragmented and enriched the mRNA using oligo (dT). After ligating the cDNA fragments to adapters, PCR amplification was performed.
‐Sequencing: The libraries were performed to sequencing on the Nextseq2000 (Illumina) platform, utilizing the SRSLY RNA NanoPlus kit to generate 100 bp paired‐end reads.
‐Data Analysis: FastQC was used to trim the adaptor sequences and remove low‐quality reads from the raw sequencing data (FASTQ files). After that, Hisat2 v2.2.1 was used to align these clean reads with the Human Genome Reference GRCh38. DESeq2 was used for differential expression analysis, while g: Profiler was used for GO enrichment analysis.

EGFP‐MDM2 = test: EGFP-MDM2 fluorescence / live imaging degradation assay; type: cell-based
Protocol: HeLa cells were cultured in DMEM (Welgene, LM001‐05) supplemented with 10% FBS (Welgene, S001‐07). For transient transfection, the cells were seeded at ≈70% confluence. The following day, transfection was performed using Lipofectamine 3000 (Invitrogen, L3000015) for 24 h according to the manufacturer's protocol. The cells were transfected with 100 ng of EGFP‐MDM2 per well in the 96‐well plate and were transfected with 2 µg of MDM2 WT and 2 µg of HA‐ubiquitin, total 4 µg per well in the 6‐well plate.
To construct the EGFP‐MDM2 plasmid DNA, MDM2 WT was amplified by PCR using specific primers. The PCR products were digested with BamH1 and EcoR1 to generate compatible ends. The plasmid backbone, EGFP‐C1, previously digested with the same enzyme, was ligated into the digested PCR product using T4 ligase (Biolabs, M0202S). The resulting plasmid construct was confirmed using restriction enzyme digestion and DNA sequencing. MDM2 WT (#16233) and HA‐ubiquitin (#18712) were purchased from Addgene (used primer sequences, see Table S2, Supporting Information).
Real‐time Live cell imaging (phase contrast, EGFP fluorescence) was performed to monitor EGFP‐MDM2 intensity at 7 min intervals after compound treatment using Cytation5 (Agilent) laser autofocus conditions to capture EGFP fluorescence to assess intensity. For fluorescence imaging, the cells were fixed using 4% PFA and washed three times with 1X dPBS. Fluorescence imaging was performed using the Cytation5. The intensity of fluorescence was assessed by tracking the fluorescence of individual cells in each image using the Time‐lapse analyzer or ROI measure feature of the Fiji ImageJ software (Version 1.54 h, USA).

IKZF1 = target: T1, IKZF1 (Homo sapiens, UniProt Q13422); test: Neo-substrate off-target immunoblot in hBMSCs; type: cell-based; settings: 10 µM, conditions with MDM2 degradation ≈70%
T1 construct: endogenous in cells; host or cells: hBMSCs
Protocol: as §1, with “shaking. The next day, the membrane was washed three times with TBST at 10 min intervals to remove unbound primary antibodies. The membranes were incubated with secondary antibodies (anti‐rabbit and anti‐mouse) conjugated to horseradish peroxidase (HRP) for 1 h at room temperature. The membrane was washed three times with 1X TBST at 10 min intervals to remove unbound secondary antibodies.” for “shaking.”

osteocalcin (OCN) = test: Immunostaining of osteogenic markers in hBMSCs; type: cell-based, human; settings: 10 µM

T1 sequence (Q13422 whole entry): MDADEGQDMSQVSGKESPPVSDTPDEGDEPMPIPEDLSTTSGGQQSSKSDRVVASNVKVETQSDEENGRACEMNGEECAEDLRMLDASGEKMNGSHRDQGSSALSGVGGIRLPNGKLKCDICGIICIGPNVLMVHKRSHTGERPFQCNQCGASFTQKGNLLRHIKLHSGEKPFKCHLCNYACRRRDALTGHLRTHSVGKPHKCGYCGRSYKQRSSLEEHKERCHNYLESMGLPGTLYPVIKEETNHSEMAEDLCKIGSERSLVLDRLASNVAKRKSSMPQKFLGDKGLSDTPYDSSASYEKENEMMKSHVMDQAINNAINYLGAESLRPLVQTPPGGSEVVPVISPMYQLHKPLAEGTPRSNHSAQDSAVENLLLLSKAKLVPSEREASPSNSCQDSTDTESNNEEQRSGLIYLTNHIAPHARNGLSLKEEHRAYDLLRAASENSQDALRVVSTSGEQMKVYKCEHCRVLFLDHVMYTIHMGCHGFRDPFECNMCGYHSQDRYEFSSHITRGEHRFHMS

Compound: COc1ccc(C2=N[C@H](c3ccc(Cl)cc3)[C@H](c3ccc(Cl)cc3)N2C(=O)N2CCN(CC(=O)NCCCCCCCCOc3cccc4c3C(=O)N(C3CCC(=O)NC3=O)C4=O)C(=O)C2)c(OC(C)C)c1 (stereo in doubt) [CL144]
- calcium deposits compared to the control group (hBMSCs [1]): significantly increased
- p53 levels (p53): elevated p53 levels in a dose‐dependent manner
- COL8A2 expression (log2FC) (hBMSCs [2]): 6.02
- COL11A1 expression (log2FC) (hBMSCs [2]): 6.23
- EGFP‐MDM2 maximal degradation efficacy (EGFP‐MDM2; 1 µM): 84%
- Dmax (EGFP signal intensity) (EGFP‐MDM2; EGFP‐MDM2 expressing cells, 1 nM to 50 µM, n = 3): 1 μΜ
- DC50 (EGFP‐MDM2; EGFP‐MDM2 expressing cells, 1 nM to 50 µM, n = 3, read-out: DC50 (EGFP signal intensity)): 250 nM
- concentration at which maximum degradation efficiency was achieved (EGFP‐MDM2; live imaging, 0.01 to 10 µM): 10 µM
- nuclear EGFP signal (EGFP‐MDM2; live imaging, treatment for 4 h): almost completely turned off the nuclear EGFP signal
- IKZF1 reduction (IKZF1): about 35%
- osteocalcin (OCN) protein intensity compared to the control group (osteocalcin (OCN)): no statistically significant difference
